Test system: A2058 human melanoma cells
Assay: Cell migration test (LPA-induced, Chemo-Tx)
Type: cell-based
Settings: LPA 100 nM, 3 hours, read-out: IC50: concentration of the test compound which inhibits the cell migration activity of LPA by 50%
Experimental: The cell migration test was carried out using Chemo-Tx (registered trademark) (116-8, Neuro Probe). A2058 human melanoma cells (obtained from European Collection of Cell Culture) were cultured in a serum-free EMEM medium for 24 hours, and then re-suspended in a 0.1% BSA-containing DMEM medium to obtain a cell suspension. The test compound dissolved in DMSO in various concentration was each added to the cell suspension, and the suspension was cultured at 37° C. for 15 minutes (the final DMSO concentration of 0.5%). LPA dissolved in a 0.1% BSA-containing DMEM medium (the final concentration of 100 nM) was added to Chemo-Tx 96 well plate, and a Chemo-Tx filter which had been coated with 0.001% Fibronectin on the both surfaces was put on the plate. The suspension of cultured cells (25,000 cells) was added onto the upper surface of the filter and further cultured at 37° C. for 3 hours, and the cells on the upper surface of the filter were removed. After the filter was removed and dried, the cells which had migrated to the lower surface of the filter were stained using Diff-Quik stain (16920, Sysmex). The absorbance of the filter (570 nm) was measured and the concentration of the test compound which inhibits the cell migration activity of LPA by 50%, (1050) was determined by non-linear regression analysis using EXSAS (version 7.6.0, Arm Systex).

An IC50 of at most 200 nM was found for `Cc1cscc1C(C)OC(=O)Nc1cc(Cl)sc1-c1ccc(-c2ccc(C3(C(=O)O)CC3)cc2)cc1` (racemic) [I-605, (RS)-1-{4′-[5-Chloro-3-({[1-(4-methylthiophen-3-yl)ethoxy]carbonyl}amino)thiophen-2-yl]-[1,1′-biphenyl]-4-yl}cyclopropanecarboxylic acid] in this work.
An IC50 of at most 200 nM was found for `COc1cc(-c2sc(Cl)cc2NC(=O)O[C@H](C)c2ccc(F)cc2Cl)ccc1-c1ccc(C2(C(=O)O)CC2)cc1` [I-396, (R)-1-{4′-[5-Chloro-3-({[1-(2-chloro-4-fluorophenyl)ethoxy]carbonyl}amino)thiophen-2-yl]-2′-methoxy-[1,1′-biphenyl]-4-yl}cyclopropanecarboxylic acid] in this work.
An IC50 of at most 200 nM was found for `COc1cc(-c2sc(Cl)cc2NC(=O)OC(C)c2ccsc2)ccc1-c1ccc(C2(C(=O)O)CC2)cc1` (racemic) [I-779, (RS)-1-{4′-[5-Chloro-3-({[1-(thiophen-3-yl)ethoxy]carbonyl}amino)thiophen-2-yl]-2′-methoxy-[1,1′-biphenyl]-4-yl}cyclopropanecarboxylic acid] in this work.
An IC50 of at most 200 nM was found for `COc1cc(-c2sc(F)cc2NC(=O)OC(C)c2cscc2C)ccc1-c1ccc(C2(C(=O)O)CC2)cc1` (racemic) [I-815, (RS)-1-{4′-[5-Fluoro-3-({[1-(4-methylthiophen-3-yl)ethoxy]carbonyl}amino)thiophen-2-yl]-2′-methoxy-[1,1′-biphenyl]-4-yl}cyclopropanecarboxylic acid] in this work.
An IC50 of at most 200 nM was found for `CC(OC(=O)Nc1cc(F)sc1-c1ccc(-c2ccc(C3(C(=O)O)CC3)cc2)cc1)c1cc(F)c(F)cc1F` (racemic) [I-171, (RS)-1-{4′-[5-Fluoro-3-({[1-(2,4,5-trifluorophenyl)ethoxy]carbonyl}amino)thiophen-2-yl]-[1,1′-biphenyl]-4-yl}cyclopropanecarboxylic acid] in this work.
An IC50 of at most 200 nM was found for `C[C@@H](OC(=O)Nc1cc(F)sc1-c1ccc(-c2ccc(C3(C(=O)O)CC3)cc2)cc1)c1ccc(F)c(F)c1` [I-148, (R)-1-{4′-[3-({[1-(3,4-Difluorophenyl)ethoxy]carbonyl}amino)-5-fluorothiophen-2-yl]-[1,1′-biphenyl]-4-yl}cyclopropanecarboxylic acid] in this work.
An IC50 of at most 200 nM was found for `C[C@@H](OC(=O)Nc1cc(F)sc1-c1ccc(-c2ccc(C3(C(=O)O)CC3)cc2)cc1)c1cccs1` [I-674, (R)-1-{4′-[5-Fluoro-3-({[1-(thiophen-2-yl)ethoxy]carbonyl}amino)thiophen-2-yl]-[1,1′-biphenyl]-4-yl}cyclopropanecarboxylic acid] in this work.
An IC50 of at most 200 nM was found for `C[C@@H](OC(=O)Nc1cc(Cl)sc1-c1ccc(-c2ccc(C3(C(=O)O)CC3)cc2)cc1)c1cccs1` [I-630, (R)-1-{4′-[5-Chloro-3-({[1-(thiophen-2-yl)ethoxy]carbonyl}amino)thiophen-2-yl]-[1,1′-biphenyl]-4-yl}cyclopropanecarboxylic acid] in this work.
An IC50 of at most 200 nM was found for `C[C@@H](OC(=O)Nc1cc(Cl)sc1-c1ccc(-c2ccc(C3(C(=O)O)CC3)cc2)cc1)c1ccc(F)c(F)c1` [I-72, (R)-1-{4′-[5-Chloro-3-({[1-(3,4-difluorophenyl)ethoxy]carbonyl}amino)thiophen-2-yl]-[1,1′-biphenyl]-4-yl}cyclopropanecarboxylic acid] in this work.
An IC50 of at most 200 nM was found for `C[C@@H](OC(=O)Nc1cc(Cl)sc1-c1ccc(-c2ccc(C3(C(=O)O)CC3)cc2)c([N+](=O)[O-])c1)c1ccccc1Cl` [I-502, (R)-1-{4′-[5-Chloro-3-({[1-(2-chlorophenyl)ethoxy]carbonyl}amino)thiophen-2-yl]-2′-nitro-[1,1′-biphenyl]-4-yl}cyclopropanecarboxylic acid] in this work.
An IC50 of at most 200 nM was found for `COc1cc(-c2sc(F)cc2NC(=O)O[C@H](C)c2ccc(F)cc2Cl)ccc1-c1ccc(C2(C(=O)O)CC2)cc1` [I-466, (R)-1-{4′-[3-({[1-(2-Chloro-4-fluorophenyl)ethoxy]carbonyl}amino)-5-fluorothiophen-2-yl]-2′-methoxy-[1,1′-biphenyl]-4-yl}cyclopropanecarboxylic acid] in this work.
An IC50 of at most 200 nM was found for `COc1cc(-c2sc(Cl)cc2NC(=O)OC(C)c2cscc2C)ccc1-c1ccc(C2(C(=O)O)CC2)cc1` (racemic) [I-783, (RS)-1-{4′-[5-Chloro-3-({[1-(4-methylthiophen-3-yl)ethoxy]carbonyl}amino)thiophen-2-yl]-2′-methoxy-[1,1′-biphenyl]-4-yl}cyclopropanecarboxylic acid] in this work.
An IC50 of at most 200 nM was found for `COc1cc(-c2sc(F)cc2NC(=O)OC(C)c2cscc2Cl)ccc1-c1ccc(C2(C(=O)O)CC2)cc1` (racemic) [I-823, (RS)-1-{4′-[3-({[1-(4-Chlorothiophen-3-yl)ethoxy]carbonyl}amino)-5-fluorothiophen-2-yl]-2′-methoxy-[1,1′-biphenyl]-4-yl}cyclopropanecarboxylic acid] in this work.
An IC50 of at most 200 nM was found for `COc1cc(-c2sc(F)cc2NC(=O)OC(C)c2cc(F)ccc2Cl)ccc1-c1ccc(C2(C(=O)O)CC2)cc1` (racemic) [I-469, (RS)-1-{4′-[3-({[1-(2-Chloro-5-fluorophenyl)ethoxy]carbonyl}amino)-5-fluorothiophen-2-yl]-2′-methoxy-[1,1′-biphenyl]-4-yl}cyclopropanecarboxylic acid] in this work.
An IC50 of at most 200 nM was found for `COc1cc(-c2sc(F)cc2NC(=O)OC(C)c2ccc(F)cc2C)ccc1-c1ccc(C2(C(=O)O)CC2)cc1` (racemic) [I-477, (RS)-1-{4′-[5-Fluoro-3-({[1-(4-fluoro-2-methylphenyl)ethoxy]carbonyl}amino)thiophen-2-yl]-2′-methoxy-[1,1′-biphenyl]-4-yl}cyclopropanecarboxylic acid] in this work.
An IC50 of at most 200 nM was found for `CC(OC(=O)Nc1cc(Cl)sc1-c1ccc(-c2ccc(C3(C(=O)O)CC3)cc2)cc1)c1cnsc1` (racemic) [I-625, (RS)-1-{4′-[5-Chloro-3-({[1-(isothiazol-4-yl)ethoxy]carbonyl}amino)thiophen-2-yl]-[1,1′-biphenyl]-4-yl}cyclopropanecarboxylic acid] in this work.
An IC50 of at most 200 nM was found for `C[C@@H](OC(=O)Nc1cc(Cl)sc1-c1ccc(-c2ccc(C3(C(=O)O)CC3)cc2)c(N)c1)c1ccccc1` [I-534] in this work.
An IC50 of at most 200 nM was found for `C[C@@H](OC(=O)Nc1cc(Cl)sc1-c1ccc(-c2ccc(C3(C(=O)O)CC3)cc2)c([N+](=O)[O-])c1)c1ccc(F)cc1` [I-498, (R)-1-{4′-[5-Chloro-3-({[1-(4-fluorophenyl)ethoxy]carbonyl}amino)thiophen-2-yl]-2′-nitro-[1,1′-biphenyl]-4-yl}cyclopropanecarboxylic acid] in this work.
An IC50 of at most 200 nM was found for `C[C@@H](OC(=O)Nc1cc(Cl)sc1-c1ccc(-c2ccc(C3(C(=O)O)CC3)cc2)c([N+](=O)[O-])c1)c1ccccc1` [I-490, (R)-1-[4′-(5-Chloro-3-{[(1-phenylethoxy)carbonyl]amino}thiophen-2-yl)-2′-nitro-[1,1′-biphenyl]-4-yl]cyclopropanecarboxylic acid] in this work.
An IC50 of at most 200 nM was found for `COc1cc(-c2sc(F)cc2NC(=O)O[C@H](C)c2ccc(Cl)cc2)ccc1-c1ccc(C2(C(=O)O)CC2)cc1` [I-446, (R)-1-{4′-[3-({[1-(4-Chlorophenyl)ethoxy]carbonyl}amino)-5-fluorothiophen-2-yl]-2′-methoxy-[1,1′-biphenyl]-4-yl}cyclopropanecarboxylic acid] in this work.
An IC50 of at most 200 nM was found for `COc1cc(-c2sc(F)cc2NC(=O)OC(C)c2cc(F)ccc2C)ccc1-c1ccc(C2(C(=O)O)CC2)cc1` (racemic) [I-481, (RS)-1-{4′-[5-Fluoro-3-({[1-(5-fluoro-2-methylphenyl)ethoxy]carbonyl}amino)thiophen-2-yl]-2′-methoxy-[1,1′-biphenyl]-4-yl}cyclopropanecarboxylic acid] in this work.
An IC50 of at most 200 nM was found for `COc1cc(-c2sc(F)cc2NC(=O)O[C@H](C)c2cccs2)ccc1-c1ccc(C2(C(=O)O)CC2)cc1` [I-840, (R)-1-{4′-[5-Fluoro-3-({[1-(thiophen-2-yl)ethoxy]carbonyl}amino)thiophen-2-yl]-2′-methoxy-[1,1′-biphenyl]-4-yl}cyclopropanecarboxylic acid] in this work.
An IC50 of at most 200 nM was found for `CC(OC(=O)Nc1cc(Cl)sc1-c1ccc(-c2ccc(C3(C(=O)O)CC3)cc2)cc1)c1ccsc1` (racemic) [I-595, (RS)-1-{4′-[5-Chloro-3-({[1-(thiophen-3-yl)ethoxy]carbonyl}amino)thiophen-2-yl]-[1,1′-biphenyl]-4-yl}cyclopropanecarboxylic acid] in this work.
An IC50 of at most 200 nM was found for `COc1cc(-c2sc(Cl)cc2NC(=O)O[C@H](C)c2cccs2)ccc1-c1ccc(C2(C(=O)O)CC2)cc1` [I-808, (R)-1-{4′-[5-Chloro-3-({[1-(thiophen-2-yl)ethoxy]carbonyl}amino)thiophen-2-yl]-2′-methoxy-[1,1′-biphenyl]-4-yl}cyclopropanecarboxylic acid] in this work.
An IC50 of at most 200 nM was found for `COc1cc(-c2sc(Cl)cc2NC(=O)OC(C)c2cscc2Cl)ccc1-c1ccc(C2(C(=O)O)CC2)cc1` (racemic) [I-791, (RS)-1-{4′-[5-Chloro-3-({[1-(4-chlorothiophen-3-yl)ethoxy]carbonyl}amino)thiophen-2-yl]-2′-methoxy-[1,1′-biphenyl]-4-yl}cyclopropanecarboxylic acid] in this work.
An IC50 of at most 200 nM was found for `COc1cc(-c2sc(F)cc2NC(=O)O[C@H](C)c2ccc(F)cc2F)ccc1-c1ccc(C2(C(=O)O)CC2)cc1` [I-454, (R)-1-{4′-[3-({[1-(2,4-Difluorophenyl)ethoxy]carbonyl}amino)-5-fluorothiophen-2-yl]-2′-methoxy-[1,1′-biphenyl]-4-yl}cyclopropanecarboxylic acid] in this work.
